Experiments:
NAMPT = NAMPT (Homo sapiens, UniProt P43490); assay: NAMPT Biochemical Assay (NMN formation by LC-MS); conditions: relative IC50; 1.5 nM NAMPT, 2 hours at room temperature; read-out: IC50 (inhibition of NAMPT catalytic activity, NMN formation)
Method: The purpose of this assay is to measure the ability of a compound to inhibit NAMPT catalytic activity. Reaction mixtures (25 μL) containing 50 mM HEPES at pH 7.5, 50 mM NaCl, 1 mM DTT, 0.005% TRITON® X-100, 1.5 μM phosphoribosyl-pyrophosphate, 0.5 μM nicotinamide (NAM), 1.5 nM NAMPT, 2.5 mM ATP, 1.25 mM MgCl2, 4% (v/v) DMSO and compounds after a ten-point series dilution from either 1 μM to 50 pM or 0.1 μM to 5 pM (final) are prepared. The reaction mixtures are incubated at room temperature for 2 hours. The reaction is terminated by the addition of ACN (25 μL) containing nicotinamide mononucleotide-d4 (NMN-d4) as an internal standard (final concentration: 5 μM). […] A positive control group (enzyme and DMSO, but no compound) is used to measure minimum inhibition (0%) of NMN formation. Percent inhibition of compound treated groups is calculated relative to the minimum inhibition group. The relative IC50 for each compound is calculated from a dose response study and is the concentration necessary to achieve 50% inhibition at this time point using the above disclosed ranges of 1 μM to 50 pM (final). The data generated from the dose-response studies is fit to a four-parameter logistic equation using ACTIVITYBASE 4.0 Equation 205.

[1] = tested on: HCC1937 (breast cancer) cells; assay: Cell Viability Assay, HCC1937; type: cell-based; conditions: Homo sapiens, 72 hours
Method: The purpose of this assay is to measure the ability of a compound to reduce viability of different cancer cells dependent on the NAMPT-mediated NAD^+ formation in vitro. HCC1937 (breast cancer) cells are cultured in RPMI-1640 supplemented with 10% FBS. Calu-6 (lung cancer) cells and MCF-7 (breast cancer) cells are cultured in Minimum Essential Medium (MEM) (Gibco11095) supplemented with 1 mM sodium pyruvate (Gibco 11360), 1% Non-Essential Amino Acids Solution (100×; Gibco 11140) and 10% FBS. NCI-H1155 (lung cancer) cells are cultured in Dulbecco's Modified Eagle Medium (DMEM) (Gibco 11965) with 10% FBS. […] Cell viability is analyzed by using an assay kit (CYTOTOX-GLO™ Cytotoxicity Assay kit, Promega) according to the manufacturer's instructions as follows. […] Luminescence is measured using a Wallac Victor3 V 1420 Multilabel Counter (Perkin Elmer), referred to as dead cell luminescence. […] After the plate is incubated at room temperature for 15 minutes, luminescence is measured using the plate reader, referred to as total luminescence. Viable cell luminescence (CPS) is calculated by subtracting the dead cell luminescence from the total luminescence Inhibition of cell viability is calculated based on the equation as follows:
Inhibition (%)=(CPSnegative−CPSsample)/(CPSnegative−CPSpositive)*100 where CPS is the luminescence of viable cells.

A2780 Tumor Xenografts = assay: LC-MS Analysis of NAD+ in A2780 Tumor Xenografts; type: in vivo, mice; conditions: oral gavage
Method: The purpose of this assay is to measure effects of NAMPT inhibitors on NAD^+ formation in cancer cells. LC-MS analysis of NAD^+ metabolites: nicotinamide mononucleotide (NMN), NAD^+, reduced nicotinamide adenine dinucleotide (NADH), and nicotinamide adenine dinucleotide phosphate (NADP) is performed on an HPLC system coupled to a Thermo Quantum Ultra triple quadrupole mass spectrometer operated in positive heated electrospray mode with selected reaction monitoring detection. For cell extracts, 50 μL of extract and 10 μL of 10 μM internal standard (IS) solution is transferred to a 96-well plate, dried under nitrogen and reconstituted in 50 μL of water. For tissue extracts, 20 μL of extract and 10 μL of IS solution are dried and reconstituted in 50 μL water. The IS solution contains 10 μM nicotinamide-d4 (C/D/N Isotopes), nicotinic acid-d4 (C/D/N Isotopes), nicotinamide mononucleotide-d4 (prepared by custom synthesis) and nicotinamide 1,N^6-ethenoadenine dinucleotide in methanol. The metabolites are separated on a Waters XBRIDGE™ Amide (2.1×50 mm, 3 μm) with an injection volume of 10 μL and a flow rate of 1 mL/minute using 10 mM ammonium acetate in 95% acetonitrile for mobile phase A and 10 mM ammonium acetate in 50% acetonitrile for mobile phase B. The gradient is as follows: 0 minutes, 0% B; 2.5 minutes, 70% B; 2.51 minutes, 100% B; 2.8 minutes, 100% B; 2.81 minutes, 0% B, 3.6 minutes, 0% B.
The purpose of this assay is to measure the effects of NAMPT inhibitors on NAD^+ levels in vivo as described above. Tumors are grown and treated as described below for efficacy in xenograft tumor models below (7 animals/group). Each compound is also formulated as described for efficacy in xenograft tumor models below. Vehicle is 20% of CAPTISOL® and 25 mM of phosphate buffer, pH 2 without compound. After the completion of the treatment, tumor tissues (˜50 mg each) are homogenized in an ice cold extraction buffer (1 mL of 70% methanol/water; HPLC grade for 2 minutes in a tissue lyser II (QIAGEN™) at frequency 30 Hz. The resulting preparations are centrifuged at 14000×g for 6 minutes. The supernatant fractions (500 μL each) are collected and extracted with chloroform (0.5 mL). The aqueous fractions (0.3 mL each) are collected into a 96-well plate ready for LC-MS analysis. The LC-MS analysis of NAD metabolites is performed as described above.
The purpose of this assay is to measure reduction in tumor volume in response to test compound administration. A2780 and NCI-H1155 (NSCLC) cells are grown as described above for IVTI studies. Cells are harvested and injected subcutaneously onto the rear flank of nude mice. When tumors are established (7-21 days after implant), animals are randomized and grouped into control and test groups (7 animals/group). The test compound is formulated in 20% of CAPTISOL® and 25 mM of phosphate buffer, pH 2. Test compound and vehicle (20% of CAPTISOL® and 25 mM of phosphate buffer, pH 2 without compound) are administered by oral gavage. Tumor response is determined by tumor volume measurement (caliper) performed twice a week during the course of treatment and reported as percent of tumor volume of each treatment group divided by tumor volume of the vehicle control group. […]

NAMPT, sequence (P43490 whole entry): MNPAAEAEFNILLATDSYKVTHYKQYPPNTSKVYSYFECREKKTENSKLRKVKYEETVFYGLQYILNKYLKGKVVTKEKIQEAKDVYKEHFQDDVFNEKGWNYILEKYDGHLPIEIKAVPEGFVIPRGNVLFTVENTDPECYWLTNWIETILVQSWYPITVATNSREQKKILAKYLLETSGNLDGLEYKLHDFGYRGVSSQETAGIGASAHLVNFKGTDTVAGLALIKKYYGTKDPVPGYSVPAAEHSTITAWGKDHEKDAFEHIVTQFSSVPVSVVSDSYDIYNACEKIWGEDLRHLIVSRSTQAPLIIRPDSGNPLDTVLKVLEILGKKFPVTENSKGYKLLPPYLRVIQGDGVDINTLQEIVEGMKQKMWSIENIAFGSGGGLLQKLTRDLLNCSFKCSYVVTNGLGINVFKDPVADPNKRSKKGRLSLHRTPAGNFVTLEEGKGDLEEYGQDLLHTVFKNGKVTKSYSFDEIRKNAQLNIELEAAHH

| IC50 (NAMPT) [µM] | IC50 [1] [µM] | Structure (SMILES) | NAD levels (pmol/mg tissue) (A2780 Tumor Xenografts; 8 mg/kg (BID)) | NAD levels (pmol/mg tissue) (A2780 Tumor Xenografts; 16 mg/kg (BID)) | NAD levels (pmol/mg tissue) (A2780 Tumor Xenografts; 32 mg/kg (BID)) | NAD levels (pmol/mg tissue) (A2780 Tumor Xenografts; 5 mg/kg (BID)) | NAD levels (pmol/mg tissue) (A2780 Tumor Xenografts; 10 mg/kg (BID)) | NAD levels (pmol/mg tissue) (A2780 Tumor Xenografts; 20 mg/kg (BID)) |
| --- | --- | --- | --- | --- | --- | --- | --- | --- |
| 0.0011 | 1.04 ± 0.664 | COCCS(=O)(=O)Nc1ccc2c(c1)CCN(C(=O)COc1cccnc1)C2 [Example 2, 2-Methoxy-N-[2-[2-(3-pyridyloxy)acetyl]-3,4-dihydro-1H-isoquinolin-6-yl]ethanesulfonamide] | 3.97 | 6.52 | 6.38 | – | – | – |
| 0.0031 | 0.333 ± 0.032 | CC(C)(O)CS(=O)(=O)Nc1ccc2c(c1)CCN(C(=O)COc1cccnc1)C2 [Example 1, 2-Hydroxy-2-methyl-N-[2-[2-(3-pyridyloxy)acetyl]-3,4-dihydro-1H-isoquinolin-6-yl]propane-1-sulfonamide] | – | – | – | 5.04 | 2.55 | 3.29 |
